In article PMC6033295, “The Effects of the Honey-Roasting Process on the Pharmacokinetics of the Six Active Compounds of Licorice” (Evidence-based Complementary and Alternative Medicine : eCAM, 2018):
Like-named read-outs stand apart in the source and are kept apart here.

Experiments:
[1] = Stability of six compounds in rat plasma (QC samples); type: in vitro ADME; conditions: n = 6
Description: The stabilities of the six compounds in rat plasma were evaluated by analyzing QC samples under different conditions. […] Long-term stability was tested by storing QC samples at -80°C for one month. RSD was evaluated by analyzing six replicate samples. The stability of the six compounds was evaluated under various conditions.

[2] = Pharmacokinetic study in rats after oral administration of raw/honey-roasting licorice water decoction (UPLC-MS/MS of plasma); type: in vivo, Wistar rats; conditions: for Tmax / AUC(0-t) / Cmax / AUC0-24h: rat plasma, 2.7 g (crude drug)/kg, n = 5; for AUC(0-t): read-out: AUC0-24h
Description: Healthy male Wistar rats (weighing 200 ± 20 g) were obtained from the Laboratory Animal Centre of Shanghai Jiao Tong University (Shanghai, China). […] All protocols and procedures were approved by the Shanghai Jiao Tong University Animal Care and Use Committee.
Chromatographic separation was performed on a ZORBAX Eclipse Plus C18 column (50 mm × 2.1 mm, 1.8 µm). […] The flow rate was set at 0.4 mL/min. The column temperature and injection volume were set at 40°C and 2.0 µL, respectively. An MS system operating in negative electrospray ionization mode was employed in this study. […] The DP for each compound and IS were -120, -100, -100, -100, -100, -80, and -100 V, respectively. The collision energy for each compound and IS were -58, -32, -42, -32, -32, -65, and -20 V, respectively. The ion spray needle voltage was set at -4500 V, and the source temperature was 500°C. Following optimization of the setting parameters, the ESI source was operated with the GS1, GS2, and CUR (Nitrogen) set at 35, 35, and 40 psi, respectively.
Fifty microliters of the plasma samples (or standard plasma samples and QC samples) were spiked with 5 µL of IS solution (10.00 µg/mL) and 200 µL of acetonitrile. The mixture was vortexed for 30 s and centrifuged at 14,000 rpm for 15 min at 4°C. The supernatant was collected and evaporated in a 37°C water bath under a nitrogen stream. The residue was redissolved with 500 µL of 70% acetonitrile.
After being housed in a controlled environment for a week, rats were randomly divided into three groups (n = 5 for each group) and were then orally administered a raw, 25% honey-roasting, or 50% honey-roasting licorice water decoction at a dosage of 2.7 g (crude drug)/kg. Blood samples of 0.15 mL were taken from the suborbital vein into heparinized tubes at 0.17, 0.5, 1, 1.5, 2, 2.5, 3, 4, 6, 8, 12, and 24 h after oral administration of the licorice water decoction. The blood samples were immediately centrifuged at 10,000 rpm for 15 min. The separated plasma samples were frozen at -80°C before analysis.
The pharmacokinetic parameters of the six compounds were calculated by […] 4.4.1 (Thermo Electron Corporation, Philadelphia, PA, USA) software. […] Data were presented as the mean ± SD. Statistical analyses of all the data obtained were evaluated using one-way ANOVA (SPSS 17.0).

[3] = parameters: method as in PMID 8197226, PMID 1432618; conditions: cited from earlier work
[4] = At 4°C for 24 h, postpreparative QC sample in autosampler, high concentration level
[5] = At 4°C for 24 h, postpreparative QC sample in autosampler, low concentration level
[6] = At 4°C for 24 h, postpreparative QC sample in autosampler, medium concentration level
[7] = At -80°C for 1 month, rat plasma QC sample, high concentration level
[8] = At -80°C for 1 month, rat plasma QC sample, low concentration level
[9] = At -80°C for 1 month, rat plasma QC sample, medium concentration level
[10] = 25% honey-roasting group vs raw group, rat, oral
[11] = male, Wistar, rat, in vivo, po, oral 50% honey-roasting licorice water decoction
[12] = male, Wistar, rat, plasma, po, oral 25% honey-roasting licorice water decoction
[13] = male, Wistar, rat, plasma, po, oral 25% honey-roasting licorice water decoction, read-out: Cmax
[14] = male, Wistar, rat, plasma, po, oral 50% honey-roasting licorice water decoction, read-out: Cmax
[15] = male, Wistar, rat, plasma, po, oral raw licorice water decoction
[16] = oral raw licorice water decoction
[17] = male, Wistar, rat, plasma, po, oral 25% honey-roasting licorice water decoction, read-out: Tmax
[18] = male, Wistar, rat, plasma, po, oral 50% honey-roasting licorice water decoction
[19] = male, Wistar, rat, plasma, po, oral 50% honey-roasting licorice water decoction, read-out: Tmax
[20] = male, Wistar, rat, plasma, po, oral raw licorice water decoction, read-out: Cmax
[21] = oral 25% honey-roasting licorice water decoction
[22] = oral 50% honey-roasting licorice water decoction

| SMILES | Stability, Average [1, 4] [%] | Stability, Average [1, 5] [%] | Stability, Average [1, 6] [%] | Stability, Average [1, 7] [%] | Stability, Average [1, 8] [%] | Stability, Average [1, 9] [%] | AUC(0-t) [2, 11] [ng·h/mL] | AUC(0-t) [2, 12] [ng·h/mL] | Cmax [2, 13] [ng/mL] | Cmax [2, 14] [ng/mL] | AUC(0-t) [2, 15] [ng·h/mL] | Tmax [2, 17] [h] | AUC(0-t) [2, 18] [ng·h/mL] | Tmax [2, 19] [h] | Cmax [2, 20] [ng/mL] | Tmax [2, 16] [h] | other results |
| --- | --- | --- | --- | --- | --- | --- | --- | --- | --- | --- | --- | --- | --- | --- | --- | --- | --- |
| O=C(/C=C/c1ccc(O[C@@H]2O[C@H](CO)[C@@H](O)[C@H](O)[C@H]2O)cc1)c1ccc(O)cc1O [ILQ, isoliquiritin] | 95.7 | 90.2 | 89.3 | 100.1 | 89.4 | 94.2 | 246 ± 7.67 |  |  |  |  |  |  |  |  |  | Cmax lower than in the raw group [2, 10]: 48.07%; Tmax longer than in the raw group [2, 10]: 1.75 times; Tmax ([2]; male, Wistar, in vivo, oral 25% honey-roasting licorice water decoction, read-out: Tmax): 0.7 h; AUC(0-t) ([2]; male, Wistar, rat, in vivo, po, oral 25% honey-roasting licorice water decoction): 260 ± 8.53 ng·h/mL; Cmax ([2]; male, Wistar, rat, in vivo, po, oral 25% honey-roasting licorice water decoction, read-out: Cmax): 24.8 ± 3.63 ng/mL; Cmax ([2]; male, Wistar, rat, in vivo, po, oral 50% honey-roasting licorice water decoction, read-out: Cmax): 20.6 ± 5.82 ng/mL; AUC(0-t) ([2]; male, Wistar, rat, in vivo, po, oral raw licorice water decoction): 257 ± 19.3 ng·h/mL; Cmax ([2]; male, Wistar, rat, in vivo, po, oral raw licorice water decoction, read-out: Cmax): 47.8 ± 2.62 ng/mL |
| O=C1C[C@@H](c2ccc(O[C@@H]3O[C@H](CO)[C@@H](O)[C@H](O)[C@H]3O)cc2)Oc2cc(O)ccc21 [LQ, liquiritin] | 99.5 | 90.9 | 88.3 | 89.5 | 96.4 | 95.6 | 319 ± 50 | 479 ± 65.2 | 203 ± 54.1 | 87.9 ± 8.08 | 520 ± 94.5 |  |  |  |  |  | Cmax lower than in the raw licorice group ([2]; 50% honey-roasting group vs raw licorice group, rat, oral): 53.96%; Cmax [2, 16]: 191.00 ± 80.23 ng/mL |
| CC1(C)[C@@H](O)CC[C@]2(C)[C@H]3C(=O)C=C4[C@@H]5C[C@@](C)(C(=O)O)CC[C@]5(C)CC[C@@]4(C)[C@]3(C)CC[C@@H]12 [GA, glycyrrhetinic acid] | 100.9 | 96.4 | 96.2 |  | 96.2 | 102.1 |  | 7000 ± 1290 | 651 ± 200 | 608 ± 278 | 6980 ± 4800 | 6.8 | 5180 ± 2540 | 6.8 | 572 ± 311 | 8.0 |  |
| O=C1C[C@@H](c2ccc(O)cc2)Oc2cc(O)ccc21 [LG, liquiritigenin] | 93.9 | 90.8 | 87.7 | 96.5 | 92.8 |  |  |  |  |  |  |  |  |  |  | 2.4 | AUC0-24h [2, 21]: 85.36 ± 14.70 ng·h/mL; Tmax [2, 21]: 2.3 h; AUC0-24h [2, 22]: 47.74 ± 8.03^∗Δ h·ng /mL; Tmax [2, 22]: 2.5 h; AUC0-24h [2, 16]: 84.29 ± 33.71 ng·h/mL |
| O=C(/C=C/c1ccc(O)cc1)c1ccc(O)cc1O [ILG, isoliquiritigenin] | 93.1 | 95.7 | 96.4 | 87.6 | 94.7 | 85.3 |  | 9.32 ± 0.68 | 1.12 ± 0.25 | 0.56 ± 0.12 | 6.53 ± 2.34 | 1.5 | 6.13 ± 0.8 | 1.8 | 0.75 ± 0.28 |  | Cmax higher than in the raw group [2, 10]: 49.3%; AUC0-24h increased over the raw licorice group ([2]; honey-roasting licorice vs raw licorice group, rat, oral): 42.7%; Tmax ([2]; male, Wistar, rat, plasma, po, oral raw licorice water decoction, read-out: Tmax): 1.5 h |
| CC1(C)[C@@H](O[C@H]2O[C@H](C(=O)O)[C@@H](O)[C@H](O)[C@H]2O[C@@H]2O[C@H](C(=O)O)[C@@H](O)[C@H](O)[C@H]2O)CC[C@]2(C)[C@H]3C(=O)C=C4[C@@H]5C[C@@](C)(C(=O)O)CC[C@]5(C)CC[C@@]4(C)[C@]3(C)CC[C@@H]12 [Glycyrrhizin, glycyrrhizin] |  |  |  |  |  |  |  |  |  |  |  |  |  |  |  |  | oral bioavailability [3]: extremely low |
